From PubChem BioAssay (NCI)
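Interpolation was linear, between the two tested concentrations surrounding the appropriate level; five concentrations were tested over 48 hours in 96-well plates. GI50 = concentration required for 50% inhibition of growth. TGI: total growth inhibition.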

How the values were obtained:
Experiment in all cases: NCI anticancer screen, dose series, 48 h
NCI-H226 lung = tested on: NCI-H226 lung
SN12C renal = tested on: SN12C renal
SW-620 colon = tested on: SW-620 colon
SF-295 CNS = tested on: SF-295 CNS
786-0 renal = tested on: 786-0 renal
UO-31 renal = tested on: UO-31 renal
SK-OV-3 ovarian = tested on: SK-OV-3 ovarian
OVCAR-5 ovarian = tested on: OVCAR-5 ovarian
NCI-H460 lung = tested on: NCI-H460 lung
SK-MEL-28 melanoma = tested on: SK-MEL-28 melanoma
CCRF-CEM leukemia = tested on: CCRF-CEM leukemia
HCT-15 colon = tested on: HCT-15 colon
SK-MEL-2 melanoma = tested on: SK-MEL-2 melanoma
OVCAR-4 ovarian = tested on: OVCAR-4 ovarian
COLO 205 colon = tested on: COLO 205 colon

SMILES	TGI (NCI-H226 lung) [µM]	TGI (SN12C renal) [µM]	TGI (SW-620 colon) [µM]	TGI (SF-295 CNS) [µM]	TGI (786-0 renal) [µM]	TGI (UO-31 renal) [µM]	TGI (SK-OV-3 ovarian) [µM]	TGI (OVCAR-5 ovarian) [µM]	TGI (NCI-H460 lung) [µM]	TGI (SK-MEL-28 melanoma) [µM]	TGI (CCRF-CEM leukemia) [µM]	TGI (HCT-15 colon) [µM]	TGI (SK-MEL-2 melanoma) [µM]	TGI (OVCAR-4 ovarian) [µM]	TGI (COLO 205 colon) [µM]	GI50 (HCT-15 colon) [µM]
CCOC(=O)c1cn2c([nH]c3ccccc32)c(C#N)c1=O	> 100	> 100	39.5	> 100	> 100	> 100	> 100	> 100	> 100	> 100	> 100	> 100	> 100	> 100	> 100	
Cn1c2c(cc(-c3ccccc3)c1=O)COc1ccccc1-2	> 100	> 100	> 100	74.9	> 100	63.3	86.8	54.1	70.7	84.6	57.5	> 100	30.4	> 100	> 100	
O=C(Nc1cc(Cl)c(Cl)cc1Cl)C(=O)C(C(=O)c1ccc2ccccc2c1)C1OC(=O)c2ccccc21 (stereo unspecified)	7.13	42.5	25.6	21	20.9	33.5	> 100	31.9	25.9	22.1		45.2	33.8		69.2	
CCCCCC(=O)Cc1cc(OC)cc2c1C(=O)Oc1cc(O)c(C(=O)O)c(CC(=O)CCCCC)c1O2	> 100		> 100	> 100	37.7		> 100	> 100	> 100		> 100				> 100	
Cc1nc(N)sc1C(=O)/C=C/c1ccc([N+](=O)[O-])cc1		> 100	> 100	> 100	> 100	> 100	> 100	> 100	> 100	> 100	> 100	> 100	> 100		> 100	
C[N+](C)(Cc1ccc(NC(=O)CCCC(=O)ON2C(=O)CCC2=O)cc1)c1ccccc1	0.0133	> 100	> 100	> 100	> 100		> 100	< 0.01		< 0.01	> 100	> 100	> 100	2.29		> 100
CC(C)c1cccc(C(C)C)c1NC1=CC(=O)C(=O)c2ccccc21	> 100	> 100	> 100	> 100	> 100	> 100	> 100	> 100	> 100	> 100	> 100	> 100	> 100		> 100	
COc1ccc(C2S/C(=C\c3cccc(O)c3)C(=O)N2NC(=O)Cc2ccccc2)cc1 (stereo unspecified)	> 100	> 100	> 100	> 100	> 100	> 100	> 100	> 100	> 100		> 100	> 100	> 100	> 100	> 100	
